In paper PMC8895007, “Crystal structures of PigF, an O-methyltransferase involved in the prodigiosin synthetic pathway, reveal an induced-fit substrate-recognition mechanism” (IUCrJ, 2022):

Tests used:
[1] = biological target: T1, PigF (Serratia marcescens, UniProt Q5W249); test: X-ray crystal structure (co-crystallisation), […] A; assay type: binding; conditions: 2 mM SAH premixed 30 min; pH 4.6, 12% MPD; cofactor site in C-terminal catalytic domain
T1 construct: residues 3-338 seen in SAH complex

[2] = biological target: the molecule itself; test: native gel or EMSA; nondenaturing gel, comparison with standards; PigF in solution

Nc1ncnc2c1ncn2[C@@H]1O[C@H](CSCC[C@H](N)C(=O)O)[C@@H](O)[C@H]1O [S-adenosylhomocysteine]
X-ray crystal structure (co-crystallisation), 1.97 A [1]: the resulting phased map revealed clear electron density for the entire protein molecule and the SAH cofactor

B1: PigF, O-methyltransferase of the prodigiosin synthetic pathway from Serratia marcescens FS14 (enzyme)
chain: MPLTKQDAVNQMMGFFQAKALTAALALKLFDQLRDRDADAAHIAARLDCPARSTEQLLIALRAMGYLDQRDGLYHLPAAHRAFLLSDEPQWLGWLGRHIDTFLYPLWGELKTAVRNDAHQRRTVFGDDRSWFDILYQNPDDVADFQEFLGKFAAPFIAGFVRDYDFSQHRAFLDIGSGIGSLPMAIADAYPGIALAICELPQASAFLRDKLTLQGYGERIDVVEGDVISGDLPIGGYDLIHLGWMLHDYAPETQLTILRNIYRAMPAGGRFIASETPLNEDKSGPEFTALLSLNMLVSTDGGIESSAQEYLDRFRLAGFSNARIMKIAGPRTLIVGEK
notes: PigF of Serratia marcescens FS14, 338 amino-acid residues; 100% identical to PigF of S. marcescens VGH107 (NCBI WP 004940222.1); residues 3-338 are seen in both chains of the PigF-SAH structure; Cloned into pET-24b as in Liu et al., 2012; The results call the protein N-terminally polyhistidine-tagged; pET-24b usually adds a C-terminal His tag (surmise); Crystallised with 2 mM SAH (small molecule) …
stoichiometry N [2]: 2
